Measurements: patent US9096538B2, “Pharmaceutical comprising PPAR agonist” (Senju Pharmaceutical Co., Ltd., priority 2005, dated 2015)

What was measured:
[1] = tested on: monkey meibomian gland epithelial cell; test: Test Example 3: increase in cell number, cultured monkey meibomian gland epithelial cell (Cell Counting Kit-8); format: cell-based, cynomolgus monkey; settings: 48 + 48 hours; for Cell proliferation (%): no addition group = 100%, average ± standard deviation, N = 5
Protocol: A female cynomolgus monkey (Environmental Biological Life Science Research Center) was used. The experimental animal was used according to the International Guiding Principles for Biomedical Research Involving Animals.
A meibomian gland epithelial cell was prepared from a monkey eyelid. An eyelid was isolated, and stored in Dulbecco's phosphate buffered saline (D-PBS; Invitrogen), and this was transferred to a clean bench. The following cell preparation procedures were all performed sterilely.
After the isolated eyelid was immersed in 80% ethanol for 30 seconds, the eyelid was washed with D-PBS with 1% penicillin-streptomycin (Invitrogen) added thereto three times, and transferred to a minimum essential medium (MEM; Invitrogen). A fat tissue and a muscle tissue surrounding a meibomian gland tissue were removed under a stereomicroscope, and this was transferred to MEM containing 0.475 U/mL of collagenase A (Roche Diagnostics) and 2.4 U/mL of dispase II (Roche Diagnostics), and incubated at 37° C. overnight. After completion of incubation, the enzyme-treated tissue was placed again under the stereomicroscope, eyelashes and an eyelid connective tissue were removed, and a meibomian gland tissue was isolated. To the isolated gland tissue was added 1 mL of trypsin-EDTA (Invitrogen), and this was incubated at 37° C. for 5 minutes. After incubation, to this was added 9 mL of MEM containing 10% FBS to stop the enzymatic reaction, then, suction and exhaustion were repeated five times using a 10 mL pipette and, further, five times using an injection syringe equipped with a 21 G injection needle to disperse tissue-constituting cells. […] The cell suspension which had passed through the filter was recovered in a 50 mL centrifuge tube, and subjected to centrifugation at room temperature and 1,500 rpm for 5 minutes. To a cell layer containing an objective cell obtained by centrifugation was added 80 μL of D-PBS containing 0.5% bovine serum albumin (BSA; Sigma-Aldrich) to sufficiently suspend the cell, to this was added 20 μL of Anti-Fibroblast Microbeads (Militenyi Biotec), and this was allowed to stand at room temperature for 30 minutes. After completion of the reaction with an antibody, to this was added 2 mL of D-PBS containing 0.5% BSA, and this was subjected again to centrifugation at room temperature and 1,500 rpm for 5 minutes. To a cell layer containing an objective cell obtained by centrifugation was added 1 mL of D-PBS containing 0.5% BSA to sufficiently suspend the cell, and this was added dropwise to an LD column (Militenyi Biotec) equilibrated in advance using a column washing solution (D-PBS containing 2 mM EDTA (Dojindo Laboratories) and 0.5% BSA). Then, 2 mL of the column washing solution was added dropwise to the LD column. […] The cell recovered in the centrifuge tube was subjected again to centrifugation at room temperature and 1,500 rpm for 5 minutes to remove the supernatant. To this precipitation was added 1 mL of Defined Keratinocyte-Serum Free Medium (DK-SFM; Invitrogen) to suspend the cell and thereby, a meibomian gland epithelial cell suspension was prepared. The prepared cell was seeded on a culture dish (IWAKI) for cell culturing having a diameter of 3.5 cm which had been coated with a type I collagen solution (Nitta Gelatin Inc.) in advance, and to which 3 mL of DK-SFM had been added. The seeded cell was cultured in an incubator (SANYO) set at 37° C., 5% CO2, 95% air, and 100% humidity, and the culture medium was exchanged with a fresh culture medium every 48 hours until the test day.
Each test substance was dissolved in ethanol (Wako Pure Chemical Industries, Ltd.) to a 200-fold concentration of a final concentration in the culture medium, and this was stored at −80° C. until immediately before use.
As a culture dish for a cell proliferation promotion test, a 96-well culture dish for tissue culture (Corning) was used.

[2] = tested on: rabbit corneal epithelial cell; test: Test Example 1: increase in cell number, cultured rabbit corneal epithelial cell (Cell Counting Kit-8); format: cell-based; settings: 48 hours, no addition group = 100%, average ± standard deviation, N = 5
Protocol: A male rabbit (Japanese white, […] LABES Co., Ltd.) was used. The experimental animal was used according to the International Guiding Principles for Biomedical Research Involving Animals.
A corneal epithelial cell was prepared from rabbit eyeballs. A cornea was excised from isolated eyeballs, and stored in Dulbecco's phosphate buffered saline (D-PBS; Invitrogen), and this was transferred to a clean bench. The following cell preparation procedures were all performed sterilely.
The isolated corneal segment was washed with D-PBS with 1% penicillin-streptomycin (Invitrogen) added thereto three times, and was transferred to a minimum essential medium (MEM; Invitrogen). A corneal endothelial cell and a Descemet's membrane of the corneal segment immersed in MEM were peeled with a knife (Alcon) for ocular operation, and the corneal segment (corneal stroma and corneal epithelium) after peeling was transferred to MEM to which dispase II (Roche Diagnostics) had been added to 2.4 U/mL. This was incubated at 37° C. for 1 hour and, thereafter, the dispase II-treated corneal segment was transferred to MEM. The corneal epithelium of the corneal segment immersed in MEM was peeled with the knife for ocular operation, and the corneal segment residue (corneal stroma) was removed from MEM. The peeled corneal epithelial cell and the MEM containing same were recovered in a 50 mL centrifuge tube, subjected to centrifugation at 1,500 rpm for 5 minutes at room temperature. The supernatant was discarded to give a corneal epithelial cell layer. To the corneal epithelial cell layer was added 1 mL of trypsin-EDTA (Invitrogen) and, after thorough mixing, the cells were incubated at 37° C. for 5 minutes to dissociate adhesion between the cells. To this was added 9 mL of MEM containing 10% fetal bovine serum (FBS; Invitrogen) to stop the enzymatic reaction, and this was subjected again to centrifugation at room temperature and 1,500 rpm for 5 minutes to obtain the corneal epithelial cell layer. To the resulting corneal epithelial cell layer was added […] of a serum-free liquid medium for proliferating a normal rabbit corneal epithelial cell (RCGM2; Kurabo Industries LTD.) to suspend the cell, and this was seeded into a culture dish (IWAKI) for culturing a cell having a diameter of 10 cm, to which 9 mL of RCGM2 had been added. […] The culture medium was exchanged with a fresh culture medium every 48 hours until the test day.
As the test substance, the following compounds were used. • PPARα agonist: WY-14643 (Calbiochem) and fenofibrate (Sigma-Aldrich) • PPARδ agonist: L-165041 (Sigma-Aldrich)
(§1) For studying the effect of promoting cell proliferation by each test substance, a culture medium prepared by removing a mouse-derived epithelial growth factor (mEGF) attached to RCGM2, from RCGM2, was used as a basal medium, while as a positive control for confirming the effect of promoting cell proliferation, a medium with an mEGF added thereto (basal medium+10 ng/mL mEGF) was used according to instructions of an RCGM2 preparation protocol.
As a culture dish for a test of cell proliferation promotion, a 96-well culture dish for tissue culture (Corning) was used. On the day before the test, each 50 μL of 0.01% type I collagen (Nitta Gelatin Inc.) was dispensed into each well of the culture dish, and coating was performed at 4° C. until immediately before the test. On the test day, after a type I collagen solution was removed, the bottom of the culture dish was washed three times using D-PBS, and this was used in the test as a collagen-treated culture dish.
In the test, a rabbit corneal epithelial cell which had been cultured to subconfluent in a culture dish having a diameter of 10 cm was used. After the culture medium was removed, the bottom of the culture dish was washed two times using D-PBS, to this was added 1 mL of trypsin-EDTA, this was incubated at 37° C. for 5 minutes and thereby, the cell was peeled from the bottom of the culture dish. […]

[3] = tested on: normal human corneal epithelial cell; test: Test Example 5: increase in cell number, normal human corneal epithelial cell, 24 hours (Cell Counting Kit-8); format: cell-based; settings: mEGF 1 ng/mL, no addition group = 100%, average ± standard deviation, N = 3 to 4
Protocol: (§2) A normal human corneal epithelial cell (KURABO) was used.
As the test substance, the following compounds were used. PPARδ agonist: L-165041 (Sigma-Aldrich), GW-501516 (Alexis)
In addition, as a positive control for confirming the cell proliferation promoting effect, a medium in which a mouse-derived epithelial growth factor (mEGF) contained in an HCGS proliferation additive set (KURABO) was added to a basal medium (basal medium+1 ng/mL mEGF) was used.
This cell suspension was seeded on a fibronectin-coated multiwell plate (24 well, BECTON DICKINSON) so that the cell number became 2×10^4 cells/500 μL/well (since the bottom area is 2 cm^2, the number is 1×10^4 cells/cm^2).
Further, 24 hours thereafter, the culture medium was exchanged with each 400 μL of the following culture media. • [1] Only basal medium (no addition group) • [2] Basal medium+mEGF (final concentration: 1 ng/mL; positive control group) • [3] Basal medium+L-165041 (final concentration: 0.01 μM and 0.1 μM) • [4] Basal medium+GW-501516 (final concentration: 0.001 μM and 0.01 μM)

[4] = tested on: rabbit corneal epithelial cell; test: Test Example 2: increase in cell number, cultured rabbit corneal epithelial cell, 120 hours (Cell Counting Kit-8); format: cell-based; settings: mEGF 10 ng/mL, no addition group = 100%, average ± standard deviation, N = 5
Protocol: A male rabbit (Japanese white, weight: about 1.5 kg, […] LABES Co., Ltd.) was used. The experimental animal was used according to the International Guiding Principles for Biomedical Research Involving Animals.
A rabbit corneal epithelial cell was prepared using the same process as that of (Test example 1).
As the test substance, the following compounds were used. • PPARδ agonist: L-165041 (Sigma-Aldrich) and GW-501516 (Alexis)
as §1
Collagen treatment of the culture dish was performed using the same process as that of (Test Example1).
In the test, a rabbit corneal epithelial cell which had been cultured to subconfluent in a culture dish having a diameter of 10 cm was used. After the culture medium was removed, the bottom of the culture dish was washed two times using D-PBS, to this was added 1 mL of trypsin-EDTA, this was incubated at 37° C. for 5 minutes and thereby, the cell was peeled from the bottom of the culture dish. After incubation, 9 mL of MEM containing 10% FBS was added to the culture dish to stop the enzymatic reaction, and this was subjected to centrifugation at room temperature and 1,500 rpm for 5 minutes to obtain a corneal epithelial cell layer. To the resulting cell was added an appropriate amount of RCGM2 to a cell concentration of 1×10^5 cells/mL to suspend the cell. Each 64 μL of this cell suspension was dispensed in each well at the cell number per bottom area (0.32 cm^2) of the collagen-treated 96-well culture dish for tissue culture of […]. […] After 24 hours from cell seeding, the culture medium was discarded, and each 100 μL of the following culture media were freshly dispensed into each well of the culture dish. • [1] Only basal medium (no addition group) • [2] Basal medium+mEGF (final concentration: 10 ng/mL; positive control group) • [3] Basal medium+L-165041 (final concentration: 0.1 μM and 1 μM) • [4] Basal medium+GW-501516 (final concentration: 0.01 μM and 0.1 μM)
The culture supernatant of each well was removed every 48 hours from exchange of the culture medium containing a test substance, and each 100 μL of the freshly prepared culture medium was dispensed into each well.

[5] = tested on: normal human corneal epithelial cell; test: Test Example 6: increase in cell number, normal human corneal epithelial cell, 48 hours (Cell Counting Kit-8); format: cell-based; settings: 10^−8 M, no addition group = 100%, average ± standard deviation, N = 4 to 5
Protocol: as §2
As the test substance, the following compounds were used. • PPARδ Agonist: GW-501516 (Alexis), GW-0742 (Sigma-Aldrich)
Only basal medium (no addition group) • [2] Basal medium+GW-501516 (final concentration: 0.01 μM) • [3] Basal medium+GW-0742 (final concentration: 0.01 μM)

`CC(C)OC(=O)C(C)(C)Oc1ccc(C(=O)c2ccc(Cl)cc2)cc1` [fenofibrate, 1-methylethyl 2-(4-(4-chlorobenzoyl)phenoxy)-2-methylpropionate] was tested, and the “Cell proliferation (%)” value ([1]; 10^−5 M) was 127.8 ± 5.2%, the “Cell proliferation (%)” value ([1]; 10^−6 M) was 114.5 ± 4.5% and the “cell proliferation compared to the no addition group (in words)” value ([1]; p<0.01 where significant) was “significantly higher than in the no addition group”. The “Cell proliferation (%)” value ([2]; 10^−5 M) was 147.0 ± 3.2% and the “Cell proliferation (%)” value ([2]; 10^−6 M) was 147.3 ± 11.8%.

For `Cc1cccc(Nc2cc(Cl)nc(SCC(=O)O)n2)c1C` [WY-14643, ((4-chloro-6-((2,3-dimethylphenyl)amino)-2-pyrimidinyl)thio)acetic acid], the “Cell proliferation (%)” value ([2]; 10^−6 M) was 155.5 ± 9.4% and the “Cell proliferation (%)” value ([2]; 10^−7 M) was 148.9 ± 15.0%.

For “mEGF: mouse-derived epithelial growth factor, positive control for cell proliferation (NSYPGCPSSYDGYCLNGGVCMHIESLDSYTCNCVIGYSGDRCQTRDLRWWELR; not fully specified; Epidermal growth factor; UniProt P01132 977-1029, looked up)”, the “Cell proliferation (%)” value [3] was 112.1 ± 1.5%, the “Cell proliferation (%)” value ([2]; mEGF 10 ng/mL) was 144.1 ± 23.1% and the “Cell proliferation (%)” value [4] was 222.1 ± 50.9%.

`Cc1c(C)c2c(c(C)c1O)CCC(C)(COc1ccc(CC3SC(=O)NC3=O)cc1)O2` (stereo not shown) [troglitazone] was tested, and the “Cell proliferation (%)” value ([1]; 10^−6 M) was 99.9 ± 1.9% and the “Cell proliferation (%)” value ([1]; 10^−7 M) was 101.6 ± 4.0%.

In the case of `Cc1cc(SCc2sc(-c3ccc(C(F)(F)F)c(F)c3)nc2C)ccc1OCC(=O)O` [GW-0742, (4-(((2-(3-fluoro-4-(trifluoromethyl)phenyl)-4-methyl-5-thiazolyl)methyl)thio)-2-methylphenoxy)acetic acid], the “Cell proliferation (%)” value [5] is reported as 124.1 ± 13.5%.
